{
  "source": "patent US10376520B2",
  "about": "“Methods for the treatment of cardiovascular disorders” (Galapagos NV, priority 2015, dated 2019)",
  "tested_on": "Subjects With Active Crohn's Disease",
  "assay": "[HDL] determination, Study 5 (Crohn's disease)",
  "assay_type": "in vivo, human",
  "conditions": "for [HDL] Mean CFB - 10 weeks results: 200 mg q.d.",
  "from_the_text": "Double-Blind, Randomized, Placebo-Controlled, Multi-Centre Study to Investigate the Efficacy and Safety of Compound 1 in Subjects With Active Crohn's Disease With Evidence of Mucosal Ulceration.\nThis is a double-blind, randomized, placebo-controlled, multi-centre Phase 2 study to investigate the efficacy and safety of Compound 1 administered once daily for the treatment of active CD with evidence of mucosal ulceration. The pharmacokinetics (including a PK substudy) and pharmacodynamics of Compound 1 and metabolite in CD will also be characterised.\nA total of 180 eligible subjects will be randomized to receive Compound 1 or placebo in addition to their stable background treatment (eg, corticosteroids, aminosalicylates, or CD-related antibiotics). The study will consist of 2 parts, with total treatment duration of 20 weeks. Randomization in Part 1 will be stratified according the subject's previous anti-TNF exposure/response, CRP level at Screening, and oral corticosteroid use at visit Day −1.\nAfter the first 10 weeks of treatment in Part 1, patients will be re-randomized for Part 2 as shown in the diagram below and will be stratified according to the subject's clinical response, previous anti-TNF exposure/response, and oral corticosteroid use at visit Day −1.\nThe following assays were conducted at Eurofins Global Central Laboratory, Bergschot 71, 4817 PA Breda, The Netherlands, and at Quest Diagnostics, Clinical Trials, Quest House, 125-135 Staines Road, Hounslow, Middlesex, TW3 3JB, United Kingdom. The assays for Study 5 were performed at BARC Europe, 3B, Industrie Park, Zwijnaarde, B-9052 Ghent, Belgium.\nThis assay relies on a homogeneous enzymatic colorimetric test. In the presence of magnesium ions, dextran sulfate selectively forms water-soluble complexes with LDL, VLDL and chylomicrons which are resistant to PEG-modified enzymes.\nThe cholesterol concentration of [HDL]-cholesterol is determined enzymatically by cholesterol esterase and cholesterol oxidase coupled with PEG to the amino groups (approx. 40%).\nIn the presence of peroxidase, the hydrogen peroxide generated reacts with 4-amino-antipyrine and Sodium N-(2-hydroxy-3-sulfopropyl)-3,5-dimethoxyaniline (HSDA) to form a purple-blue dye. The color intensity of this dye is directly proportional to the cholesterol concentration and is measured photometrically.\nHuman serum and plasma samples [HDL] determination was done on a Roche/Hitachi Cobas c 701/702 system which automatically calculate the analyte concentration of each sample. Samples containing precipitates are centrifuged before performing the assay.",
  "key": {"[1]": {"conditions": "200 mg q.d. week 0 to 10, to 100 mg q.d. week 10 to 20, week 4"}, "[2]": {"conditions": "200 mg q.d. week 0 to 10, to 100 mg q.d. week 10 to 20, week 6"}, "[3]": {"conditions": "200 mg q.d. week 0 to 10, to 100 mg q.d. week 10 to 20, week 10"}, "[4]": {"conditions": "200 mg q.d. week 0 to 10, to 100 mg q.d. week 10 to 20, week 12"}, "[5]": {"conditions": "200 mg q.d. week 0 to 10, to 100 mg q.d. week 10 to 20, week 16"}, "[6]": {"conditions": "200 mg q.d. week 0 to 10, to 100 mg q.d. week 10 to 20, week 20"}, "[7]": {"conditions": "200 mg q.d. week 0 to 10, to placebo week 10 to 20, week 2"}, "[8]": {"conditions": "200 mg q.d. week 0 to 10, to placebo week 10 to 20, week 4"}, "[9]": {"conditions": "200 mg q.d. week 0 to 10, to placebo week 10 to 20, week 6"}, "[10]": {"conditions": "200 mg q.d. week 0 to 10, to placebo week 10 to 20, week 10"}, "[11]": {"conditions": "200 mg q.d. week 0 to 10, to placebo week 10 to 20, week 12"}, "[12]": {"conditions": "200 mg q.d. week 0 to 10, to placebo week 10 to 20, week 16"}, "[13]": {"conditions": "200 mg q.d. week 0 to 10, to placebo week 10 to 20, week 20"}, "[14]": {"conditions": "continued 200 mg q.d. (N = 77), week 2"}, "[15]": {"conditions": "continued 200 mg q.d. (N = 77), week 4"}, "[16]": {"conditions": "continued 200 mg q.d. (N = 77), week 6"}, "[17]": {"conditions": "continued 200 mg q.d. (N = 77), week 10"}, "[18]": {"conditions": "continued 200 mg q.d. (N = 77), week 12"}, "[19]": {"conditions": "continued 200 mg q.d. (N = 77), week 16"}, "[20]": {"conditions": "continued 200 mg q.d. (N = 77), week 20"}, "[21]": {"conditions": "placebo week 0 to 10, then 100 mg q.d. (N = 22), week 12"}, "[22]": {"conditions": "placebo week 0 to 10, then 100 mg q.d. (N = 22), week 16"}, "[23]": {"conditions": "placebo week 0 to 10, then 100 mg q.d. (N = 22), week 20"}, "[24]": {"conditions": "placebo week 0 to 10, to 100 mg q.d. week 10 to 20, week 12"}, "[25]": {"conditions": "placebo week 0 to 10, to 100 mg q.d. week 10 to 20, week 16"}, "[26]": {"conditions": "placebo week 0 to 10, to 100 mg q.d. week 10 to 20, week 20"}},
  "data": [
    {"compound": "O=C(Nc1nc2cccc(-c3ccc(CN4CCS(=O)(=O)CC4)cc3)n2n1)C1CC1", "note": "[Compound 1, cyclopropanecarboxylic acid {5-[4-(1,1-dioxo-thiomorpholin-4-ylmethyl)-phenyl]-[1,2,4]triazolo[1,5-a]pyridin-2yl}-amide]", "values": [
      {"measurement": "[HDL] Mean CFB - 20 weeks results", "setting": "[1]", "value": 25.33, "unit": "%"},
      {"measurement": "[HDL] Median CFB - 10 weeks results", "setting": "[1]", "value": 16.75, "unit": "%"},
      {"measurement": "[HDL] Mean CFB - 20 weeks results", "setting": "[2]", "value": 25.93, "unit": "%"},
      {"measurement": "[HDL] Median CFB - 10 weeks results", "setting": "[2]", "value": 23.04, "unit": "%"},
      {"measurement": "[HDL] Mean CFB - 20 weeks results", "setting": "[3]", "value": 26.29, "unit": "%"},
      {"measurement": "[HDL] Median CFB - 10 weeks results", "setting": "[3]", "value": 19.61, "unit": "%"},
      {"measurement": "[HDL] Mean CFB - 20 weeks results", "setting": "[4]", "value": 14.27, "unit": "%"},
      {"measurement": "[HDL] Median CFB - 10 weeks results", "setting": "[4]", "value": 10.66, "unit": "%"},
      {"measurement": "[HDL] Mean CFB - 20 weeks results", "setting": "[5]", "value": 11.19, "unit": "%"},
      {"measurement": "[HDL] Median CFB - 10 weeks results", "setting": "[5]", "value": 2.24, "unit": "%"},
      {"measurement": "[HDL] Mean CFB - 20 weeks results", "setting": "[6]", "value": 15.54, "unit": "%"},
      {"measurement": "[HDL] Median CFB - 10 weeks results", "setting": "[6]", "value": 10.18, "unit": "%"},
      {"measurement": "[HDL] Mean CFB - 20 weeks results", "setting": "[7]", "value": 13.75, "unit": "%"},
      {"measurement": "[HDL] Median CFB - 10 weeks results", "setting": "[7]", "value": 13.54, "unit": "%"},
      {"measurement": "[HDL] Mean CFB - 20 weeks results", "setting": "[8]", "value": 23.62, "unit": "%"},
      {"measurement": "[HDL] Median CFB - 10 weeks results", "setting": "[8]", "value": 27.96, "unit": "%"},
      {"measurement": "[HDL] Mean CFB - 20 weeks results", "setting": "[9]", "value": 13.52, "unit": "%"},
      {"measurement": "[HDL] Median CFB - 10 weeks results", "setting": "[9]", "value": 13.45, "unit": "%"},
      {"measurement": "[HDL] Mean CFB - 20 weeks results", "setting": "[10]", "value": 14.87, "unit": "%"},
      {"measurement": "[HDL] Median CFB - 10 weeks results", "setting": "[10]", "value": 15.66, "unit": "%"},
      {"measurement": "[HDL] Mean CFB - 20 weeks results", "setting": "[11]", "value": "−3.87", "unit": "%"},
      {"measurement": "[HDL] Median CFB - 10 weeks results", "setting": "[11]", "value": "−1.75", "unit": "%"},
      {"measurement": "[HDL] Mean CFB - 20 weeks results", "setting": "[12]", "value": "−7.46", "unit": "%"},
      {"measurement": "[HDL] Median CFB - 10 weeks results", "setting": "[12]", "value": "−3.07", "unit": "%"},
      {"measurement": "[HDL] Mean CFB - 20 weeks results", "setting": "[13]", "value": "−8.40", "unit": "%"},
      {"measurement": "[HDL] Median CFB - 10 weeks results", "setting": "[13]", "value": "−4.82", "unit": "%"},
      {"measurement": "[HDL] Mean CFB - 10 weeks results", "setting": "week 2", "value": 17.940, "unit": "%"},
      {"measurement": "[HDL] Mean CFB - 10 weeks results", "setting": "week 4", "value": 19.414, "unit": "%"},
      {"measurement": "[HDL] Mean CFB - 10 weeks results", "setting": "week 6", "value": 20.199, "unit": "%"},
      {"measurement": "[HDL] Mean CFB - 10 weeks results", "setting": "week 10", "value": 19.734, "unit": "%"},
      {"measurement": "[HDL] Mean CFB - 20 weeks results", "setting": "[14]", "value": 0.23, "unit": "mmol/L"},
      {"measurement": "[HDL] Median CFB - 20 weeks results", "setting": "[14]", "value": 0.21, "unit": "mmol/L"},
      {"measurement": "[HDL] Mean CFB - 20 weeks results", "setting": "[15]", "value": 0.18, "unit": "mmol/L"},
      {"measurement": "[HDL] Median CFB - 20 weeks results", "setting": "[15]", "value": 0.16, "unit": "mmol/L"},
      {"measurement": "[HDL] Mean CFB - 20 weeks results", "setting": "[16]", "value": 0.24, "unit": "mmol/L"},
      {"measurement": "[HDL] Median CFB - 20 weeks results", "setting": "[16]", "value": 0.21, "unit": "mmol/L"},
      {"measurement": "[HDL] Mean CFB - 20 weeks results", "setting": "[17]", "value": 0.22, "unit": "mmol/L"},
      {"measurement": "[HDL] Median CFB - 20 weeks results", "setting": "[17]", "value": 0.25, "unit": "mmol/L"},
      {"measurement": "[HDL] Mean CFB - 20 weeks results", "setting": "[18]", "value": 0.20, "unit": "mmol/L"},
      {"measurement": "[HDL] Median CFB - 20 weeks results", "setting": "[18]", "value": 0.15, "unit": "mmol/L"},
      {"measurement": "[HDL] Mean CFB - 20 weeks results", "setting": "[19]", "value": 0.17, "unit": "mmol/L"},
      {"measurement": "[HDL] Median CFB - 20 weeks results", "setting": "[19]", "value": 0.20, "unit": "mmol/L"},
      {"measurement": "[HDL] Mean CFB - 20 weeks results", "setting": "[20]", "value": 0.10, "unit": "mmol/L"},
      {"measurement": "[HDL] Median CFB - 20 weeks results", "setting": "[20]", "value": 0.15, "unit": "mmol/L"},
      {"measurement": "[HDL] Mean CFB - 20 weeks results", "setting": "[21]", "value": 0.03, "unit": "mmol/L"},
      {"measurement": "[HDL] Median CFB - 20 weeks results", "setting": "[21]", "value": 0.12, "unit": "mmol/L"},
      {"measurement": "[HDL] Mean CFB - 20 weeks results", "setting": "[22]", "value": 0.09, "unit": "mmol/L"},
      {"measurement": "[HDL] Median CFB - 20 weeks results", "setting": "[22]", "value": 0.12, "unit": "mmol/L"},
      {"measurement": "[HDL] Mean CFB - 20 weeks results", "setting": "[23]", "value": 0.00, "unit": "mmol/L"},
      {"measurement": "[HDL] Median CFB - 20 weeks results", "setting": "[23]", "value": 0.10, "unit": "mmol/L"},
      {"measurement": "[HDL] Mean CFB - 20 weeks results", "setting": "[24]", "value": 5.75, "unit": "%"},
      {"measurement": "[HDL] Median CFB - 10 weeks results", "setting": "[24]", "value": 8.64, "unit": "%"},
      {"measurement": "[HDL] Mean CFB - 20 weeks results", "setting": "[25]", "value": 10.06, "unit": "%"},
      {"measurement": "[HDL] Median CFB - 10 weeks results", "setting": "[25]", "value": 8.63, "unit": "%"},
      {"measurement": "[HDL] Mean CFB - 20 weeks results", "setting": "[26]", "value": 3.77, "unit": "%"},
      {"measurement": "[HDL] Median CFB - 10 weeks results", "setting": "[26]", "value": 11.27, "unit": "%"}
    ]}
  ]
}
